Like-named read-outs stand apart in the source and are kept apart here.
Test system: HBsAg secretion in HepG2.2.15 cells
Test: HBsAg assay (chemiluminescence immunoassay of secreted HBsAg in culture supernatant)
Format: cell-based, HBV
Conditions: concentration at which HBsAg secretion was reduced by 50% compared to the no drug control, read-out: IC50 (HBsAg assay)
Procedure: HepG2.2.15 cells (Acs et al. Proc Natl Acad Sci USA, 84, (1987), 4641-4), a constitutively HBV-expressing cell line were cultured in DMEM+Glutamax-I medium (Invitrogen, Carlsbad, Calif., USA), supplemented with 10% fetal bovine serum (Invitrogen) and G418 (Invitrogen) at a final concentration of 200 mg/L and maintained in 5% CO2 at 37° C.
HepG2.2.15 cells were seeded in duplicate into white, 96-well plates at 1.5×10^4 cells/well. The cells were treated with a three-fold serial dilution series of the compounds in DMSO. The final DMSO concentration in all wells was 1% and DMSO was used as no drug control.
The HBsAg chemiluminescence immunoassay (CLIA) kit (Autobio Diagnostics Co., Zhengzhou, China, Catalog number: CL0310-2) was used to measure the levels of secreted HBV antigens semi-quantitatively. For the detection 50 μL/well culture supernatant was used and HBsAg was quantified using HBsAg chemiluminescence immunoassay (CLIA) kit (Autobio Diagnostics Co., Zhengzhou, China, Catalog number: CL0310-2), 50 μL of the supernatant was transferred to the CLIA assay plate and 50 μL of enzyme conjugate reagent was added into each well. The plates were sealed and gently agitated for 1 hour at room temperature. The supernatant-enzyme-mixture was discarded and wells were washed 6 times with 300 μL of PBS. The residual liquid was removed by plating the CLIA plate […] on absorbent tissue paper. 25 μL of substrates A and B were added to each well. Luminance was measured using a luminometer (Mithras LB 940 Multimode Microplate Reader) after 10 minutes incubation. Dose-response curves were generated and the IC50 value was extrapolated by using the E-WorkBook Suite (ID Business Solutions Ltd., Guildford, UK). The IC50 was defined as the compound concentration (or conditioned media log dilution) at which HBsAg secretion was reduced by 50% compared to the no drug control.
The compounds according to formula I were tested for their capacity to inhibit HBsAg as described herein.

[1] = Hepatitis B virus, HepG2.2.15, HepG2.2.15 cells

Compound	IC50 [1] [nM]	IC50 (HepG2.2.15 cells) [nM]
COc1cc(N2CCc3nc(-c4ncccn4)ncc3C2C)cc(F)c1I (centres unmarked) [Example 111, 6-(3-fluoro-4-iodo-5-methoxy-phenyl)-5-methyl-2-pyrimidin-2-yl-7,8-dihydro-5H-pyrido[4,3-d]pyrimidine]	41	
CC1c2cnc(-c3ncccn3)nc2CCN1c1cc(F)cc(OC2CCOCC2)n1 (centres unmarked) [Example 173, 6-(4-fluoro-6-tetrahydropyran-4-yloxy-2-pyridyl)-5-methyl-2-pyrimidin-2-yl-7,8-dihydro-5H-pyrido[4,3-d]pyrimidine]	132	
CC1c2cnc(-c3ncccn3)nc2CCN1c1cc(F)c(F)c(OC2CCOC2)c1 (centres unmarked) [Example 121, 6-(3,4-difluoro-5-tetrahydrofuran-3-yloxy-phenyl)-(5R/S)-methyl-2-pyrimidin-2-yl-7,8-dihydro-5H-pyrido[4,3-d]pyrimidine]		42
CC(=O)NCCCOc1cc(N2CCc3nc(-c4ncccn4)ncc3C2C)cc(F)c1F (centres unmarked) [Example 92, N-[3-[2,3-difluoro-5-(5-methyl-2-pyrimidin-2-yl-7,8-dihydro-5H-pyrido[4,3-d]pyrimidin-6-yl)phenoxy]propyl]acetamide]	54	
CC1c2cnc(-c3ncccn3)nc2CCN1c1cc(F)c(F)c(OCCCS(C)(=O)=O)c1 (single isomer, unassigned; (-)) [Example 49, (−)-6-[3,4-difluoro-5-(3-methylsulfonylpropoxy)phenyl]-5-methyl-2-pyrimidin-2-yl-7,8-dihydro-5H-pyrido[4,3-d]pyrimidine]		34
COCCCN(C)S(=O)(=O)c1cc(F)cc(N2CCc3nc(-c4ncccn4)ncc3C2C)c1 (centres unmarked) [Example 183, 3-fluoro-N-(3-methoxypropyl)-N-methyl-5-(5-methyl-2-pyrimidin-2-yl-7,8-dihydro-5H-pyrido[4,3-d]pyrimidin-6-yl)benzenesulfonamide]	838	
CC1c2cnc(-c3ncccn3)nc2CCN1c1cc(F)c(F)c(OCCC2CCOC2)c1 (centres unmarked) [Example 114, 6-[3,4-difluoro-5-(2-tetrahydrofuran-3-ylethoxy)phenyl]-5-methyl-2-pyrimidin-2-yl-7,8-dihydro-5H-pyrido[4,3-d]pyrimidine]	18	
CC1c2cnc(-c3ncccn3)nc2CCN1c1cc(F)c(F)c(OCCCC(N)=O)c1 (centres unmarked) [Example 52, 4-[2,3-difluoro-5-(5-methyl-2-pyrimidin-2-yl-7,8-dihydro-5H-pyrido[4,3-d]pyrimidin-6-yl)phenoxy]butanamide]	110	
CC1c2cnc(-c3ccccn3)nc2CCN1c1cc(OCC2CCOC2)cc(F)n1 (centres unmarked) [Example 188, 6-[6-fluoro-4-(tetrahydrofuran-3-ylmethoxy)-2-pyridyl]-5-methyl-2-(2-pyridyl)-7,8-dihydro-5H-pyrido[4,3-d]pyrimidine]	29	
CC1c2cnc(-c3ncccn3)nc2CCN1c1cc(F)c(F)c(OCCC2CCCO2)c1 (centres unmarked) [Example 105, 6-[3,4-difluoro-5-(2-tetrahydrofuran-2-ylethoxy)phenyl]-5-methyl-2-pyrimidin-2-yl-7,8-dihydro-5H-pyrido[4,3-d]pyrimidine]	23	
COC(=O)CCCCOc1cc(N2CCc3nc(-c4ncccn4)ncc3C2C)cc(F)c1F (centres unmarked) [Example 62, methyl 5-[2,3-difluoro-5-(5-methyl-2-pyrimidin-2-yl-7,8-dihydro-5H-pyrido[4,3-d]pyrimidin-6-yl)phenoxy]pentanoate]	494	
CC1c2cnc(-c3ncccn3)nc2CCN1c1cc(F)c(F)c(OCCCN2CCNCC2=O)c1 (centres unmarked) [Example 99, 1-[3-[2,3-difluoro-5-(5-methyl-2-pyrimidin-2-yl-7,8-dihydro-5H-pyrido[4,3-d]pyrimidin-6-yl)phenoxy]propyl]piperazin-2-one]	1270	
COc1cc(F)c(Cl)c(N2CCc3nc(-c4ncccn4)ncc3C2C)c1 (single isomer, unassigned; (-)) [Example 130, (−)-6-(2-chloro-3-fluoro-5-methoxy-phenyl)-5-methyl-2-pyrimidin-2-yl-7,8-dihydro-5H-pyrido[4,3-d]pyrimidine]	679	
COc1cc(N2CCc3nc(-c4ncccn4)ncc3C2C)nc(F)c1I (centres unmarked) [Example 128, 6-(6-fluoro-5-iodo-4-methoxy-2-pyridyl)-5-methyl-2-pyrimidin-2-yl-7,8-dihydro-5H-pyrido[4,3-d]pyrimidine]	5	
CC1c2cnc(-c3ncccn3)nc2CCN1c1cc(OCC2CN(S(C)(=O)=O)C2)cc(F)n1 (centres unmarked) [Example 159, 6-[6-fluoro-4-[(1-methylsulfonylazetidin-3-yl)methoxy]-2-pyridyl]-5-methyl-2-pyrimidin-2-yl-7,8-dihydro-5H-pyrido[4,3-d]pyrimidine]	56	
CC1c2cnc(-c3ncccn3)nc2CCN1c1cc(F)c(F)c(OCCC(N)C(=O)O)c1 (centres unmarked) [Example 104, 2-amino-4-[2,3-difluoro-5-(5-methyl-2-pyrimidin-2-yl-7,8-dihydro-5H-pyrido[4,3-d]pyrimidin-6-yl)phenoxy]butanoic acid]	19000	
CC1c2cnc(-c3ncccn3)nc2CCN1c1cc(F)cc(C2CC2)c1 (centres unmarked) [Example 137, 6-(3-cyclopropyl-5-fluoro-phenyl)-5-methyl-2-pyrimidin-2-yl-7,8-dihydro-5H-pyrido[4,3-d]pyrimidine]	124	
COc1cc(N2CCc3nc(-c4ncccn4)ncc3C2C)cc(F)n1 (centres unmarked) [Example 129, 6-(2-fluoro-6-methoxy-4-pyridyl)-5-methyl-2-pyrimidin-2-yl-7,8-dihydro-5H-pyrido[4,3-d]pyrimidine]	18	
CCC1c2cnc(-c3ccccn3)nc2CCN1c1cc(F)c(F)c(OC)c1 (single isomer, unassigned; (+)) [Example 10, (+)-6-(3,4-difluoro-5-methoxy-phenyl)-5-ethyl-2-(2-pyridyl)-7,8-dihydro-5H-pyrido[4,3-d]pyrimidine]		21900
COc1cc(F)nc(N2CCc3nc(-c4ncccn4)ncc3C2C)c1 (single isomer, unassigned; (-)) [Example 138, (−)-6-(6-fluoro-4-methoxy-2-pyridyl)-5-methyl-2-pyrimidin-2-yl-7,8-dihydro-5H-pyrido[4,3-d]pyrimidine]		11
CC1c2cnc(-c3ncccn3)nc2CCN1c1cc(F)c(F)c(OCC2CC2)c1 (centres unmarked) [Example 88, 6-[3-(cyclopropylmethoxy)-4,5-difluoro-phenyl]-5-methyl-2-pyrimidin-2-yl-7,8-dihydro-5H-pyrido[4,3-d]pyrimidine]	27	
CC1c2cnc(-c3ncccn3)nc2CCN1c1cc(O)c(F)c(F)c1 (single isomer, unassigned; (-)) [Example 45, (−)-2,3-difluoro-5-(5-methyl-2-pyrimidin-2-yl-7,8-dihydro-5H-pyrido[4,3-d]pyrimidin-6-yl)phenol]		176
CC1c2cnc(-c3ncccn3)nc2CCN1c1cc(F)c(F)c(OCCCN2CCNC2=O)c1 (centres unmarked) [Example 113, 1-[3-[2,3-difluoro-5-(5-methyl-2-pyrimidin-2-yl-7,8-dihydro-5H-pyrido[4,3-d]pyrimidin-6-yl)phenoxy]propyl]imidazolidin-2-one]	94	
CC1c2cnc(-c3ncccn3)nc2CCN1c1cc(OCCCCC(=O)O)cc(F)n1 (single isomer, unassigned; (-)) [Example 157, (−)-5-[[2-fluoro-6-[5-methyl-2-pyrimidin-2-yl-7,8-dihydro-5H-pyrido[4,3-d]pyrimidin-6-yl]-4-pyridyl]oxy]pentanoic acid]	47	
CC1c2cnc(-c3ncccn3)nc2CCN1c1cc(F)c(F)c(OCCCNC(=O)CCCCl)c1 (centres unmarked) [Example 95, 4-chloro-N-[3-[2,3-difluoro-5-(5-methyl-2-pyrimidin-2-yl-7,8-dihydro-5H-pyrido[4,3-d]pyrimidin-6-yl)phenoxy]propyl]butanamide]	724	
CC1c2cnc(-c3ccccn3)nc2CCN1c1cc(OCCCCCC(=O)O)cc(F)n1 (centres unmarked) [Example 170, 6-[[2-fluoro-6-[5-methyl-2-(2-pyridyl)-7,8-dihydro-5H-pyrido[4,3-d]pyrimidin-6-yl]-4-pyridyl]oxy]hexanoic acid]	16	
CC1c2cnc(-c3ncccn3)nc2CCN1c1cc(F)c(F)c(OCCC2CN(S(C)(=O)=O)C2)c1 (centres unmarked) [Example 118, 6-[3,4-difluoro-5-[2-(1-methylsulfonylazetidin-3-yl)ethoxy]phenyl]-5-methyl-2-pyrimidin-2-yl-7,8-dihydro-5H-pyrido[4,3-d]pyrimidine]	13	
CC1c2cnc(-c3ncccn3)nc2CCN1c1cc(O)c(F)c(F)c1 (single isomer, unassigned; (+)) [Example 46, (+)-2,3-difluoro-5-(5-methyl-2-pyrimidin-2-yl-7,8-dihydro-5H-pyrido[4,3-d]pyrimidin-6-yl)phenol]		8170
CC1c2cnc(-c3ncccn3)nc2CCN1c1cc(F)c(F)c(OCCCN2CCOCC2=O)c1 (centres unmarked) [Example 80]	71	

— US9845322B2 (Hoffmann-La Roche Inc., priority 2016, dated 2017)
